In patent publication US20260226020A1, “Nav 1.7 AND/OR Nav 1.8 BLOCKING HYDRAZIDES, PROCESSES FOR THE PREPARATION THEREOF, COMPOSITIONS, USES, METHODS OF TREATMENT USING SAME AND KITS” (Eurofarma Laboratórios S.A., priority 2023, published 2026):

Legend:
[1] = biological target: T1, human sodium channels Nav 1.7 (Homo sapiens, UniProt Q15858); assay: Automated whole-cell voltage-clamp (ScreenPatch 384P) sodium current block in CHO cells expressing Nav 1.7; format: cell-based; conditions: CHO cells stably expressing human Nav 1.7; whole cell patch clamp, inactivation step -40 mV 8 s, test step 0 mV (TP1A), room temperature; mean where tested in two or more assays; read-out: Nav1.7 IC50
T1 construct: expressed in transfected cells
Method: (§1) Biological assays were performed on Chinese hamster ovary (CHO) cells that express human sodium channels Nav 1.8 or Nav 1.7 in a stable manner.
(§2) The experimental protocol voltage-clamp using the whole cell configuration was established on the automated ScreenPatch© 384P platform (SP384PE, Nanion Technologies, Livingston, NJ) and the results were recorded with a Nanion 384-well Patch Clamp chip (NPC) (Nanion Technologies, Livingston, NJ).
(§3) Formula I compounds were diluted in eight concentrations in the extracellular solution composed of saline saline solution, buffered with HEPES (mM): NaCl, 137; KCl, 4; CaCl2, 3.8; MgCl2, 1; HEPES, 10; Glucose, 10; pH 7.4. The […], 50; CsF, 90; MgCl2, 5; EGTA, 5; HEPES, 10; pH 7.2. The duration of exposure of each compound with cells expressing Nav 1.7 or Nav 1.8 was at least five minutes, and the assays were performed at room temperature.
(§4) The measurements of the sodium currents of Nav 1.8 and Nav 1.7 were obtained using the voltage protocol described below.
(§5) A holding voltage of −100 mV was established followed by an inactivation voltage step at −40 mV for 8 seconds, followed by a step of −100 mV for 20 ms, followed by a 20 ms step for 10 mV for Nav 1.8 or 0 mV for Nav 1.7 (TP1A) before returning to the holding voltage of −100 mV.
(§6) The protocol was repeated at a frequency of 0.05 Hz and the amplitude of the current was quantified throughout the recording of the TP1A phase. The variation in the amplitude of the peak current was evaluated according to the formula described below, after exposing the cells expressing the channels to each concentration of the different compounds:
(§7) wherein ITP1A,basal and ITP1A,molecule represent the peaks of sodium current input into TP1A before exposure to the compound and in the presence of the compound, respectively.
(§8) The decrease in the amplitude of the peak current, after the exposure of the cells to the compounds, was used to calculate the percentage of relative blockage of the channels in relation to the positive control according to the formula below: […]
(§9) wherein % V and % CP represent the means of the values of current inhibition with a vehicle (DMSO) and positive controls, respectively. The sodium currents of the positive control were considered as 100%.
(§10) wherein [Test] represents the concentration of the molecule evaluated, CI50 is the concentration of the compound that generates half of the maximum inhibition, N is the Hill coefficient, and % Block′ is the percentage of sodium channel current (Nav 1.8 and Nav 1.7) blocked at each concentration of the molecule evaluated. Data were obtained by nonlinear regression (nonlinear least squares) with XLfit for Excel (Microsoft, Redmond, WA).
(§11) The compounds were tested in at least one assay to obtain the value of CI50. For compounds that were tested in two or more assays, the results are described as the means of the CI50 values.

[2] = biological target: T2, human sodium channels Nav 1.8 (Homo sapiens, UniProt Q9Y5Y9); assay: Automated whole-cell voltage-clamp (ScreenPatch 384P) sodium current block in CHO cells expressing Nav 1.8; format: cell-based; conditions: CHO cells stably expressing human Nav 1.8; whole cell patch clamp, inactivation step -40 mV 8 s, test step 10 mV (TP1A), room temperature; mean where tested in two or more assays; read-out: Nav1.8 IC50
T2 construct: expressed in transfected cells
Method: as §1, §2, §3, §4, §5, §6, §7, §8, §9, §10, §11

T2 sequence (Q9Y5Y9 whole entry): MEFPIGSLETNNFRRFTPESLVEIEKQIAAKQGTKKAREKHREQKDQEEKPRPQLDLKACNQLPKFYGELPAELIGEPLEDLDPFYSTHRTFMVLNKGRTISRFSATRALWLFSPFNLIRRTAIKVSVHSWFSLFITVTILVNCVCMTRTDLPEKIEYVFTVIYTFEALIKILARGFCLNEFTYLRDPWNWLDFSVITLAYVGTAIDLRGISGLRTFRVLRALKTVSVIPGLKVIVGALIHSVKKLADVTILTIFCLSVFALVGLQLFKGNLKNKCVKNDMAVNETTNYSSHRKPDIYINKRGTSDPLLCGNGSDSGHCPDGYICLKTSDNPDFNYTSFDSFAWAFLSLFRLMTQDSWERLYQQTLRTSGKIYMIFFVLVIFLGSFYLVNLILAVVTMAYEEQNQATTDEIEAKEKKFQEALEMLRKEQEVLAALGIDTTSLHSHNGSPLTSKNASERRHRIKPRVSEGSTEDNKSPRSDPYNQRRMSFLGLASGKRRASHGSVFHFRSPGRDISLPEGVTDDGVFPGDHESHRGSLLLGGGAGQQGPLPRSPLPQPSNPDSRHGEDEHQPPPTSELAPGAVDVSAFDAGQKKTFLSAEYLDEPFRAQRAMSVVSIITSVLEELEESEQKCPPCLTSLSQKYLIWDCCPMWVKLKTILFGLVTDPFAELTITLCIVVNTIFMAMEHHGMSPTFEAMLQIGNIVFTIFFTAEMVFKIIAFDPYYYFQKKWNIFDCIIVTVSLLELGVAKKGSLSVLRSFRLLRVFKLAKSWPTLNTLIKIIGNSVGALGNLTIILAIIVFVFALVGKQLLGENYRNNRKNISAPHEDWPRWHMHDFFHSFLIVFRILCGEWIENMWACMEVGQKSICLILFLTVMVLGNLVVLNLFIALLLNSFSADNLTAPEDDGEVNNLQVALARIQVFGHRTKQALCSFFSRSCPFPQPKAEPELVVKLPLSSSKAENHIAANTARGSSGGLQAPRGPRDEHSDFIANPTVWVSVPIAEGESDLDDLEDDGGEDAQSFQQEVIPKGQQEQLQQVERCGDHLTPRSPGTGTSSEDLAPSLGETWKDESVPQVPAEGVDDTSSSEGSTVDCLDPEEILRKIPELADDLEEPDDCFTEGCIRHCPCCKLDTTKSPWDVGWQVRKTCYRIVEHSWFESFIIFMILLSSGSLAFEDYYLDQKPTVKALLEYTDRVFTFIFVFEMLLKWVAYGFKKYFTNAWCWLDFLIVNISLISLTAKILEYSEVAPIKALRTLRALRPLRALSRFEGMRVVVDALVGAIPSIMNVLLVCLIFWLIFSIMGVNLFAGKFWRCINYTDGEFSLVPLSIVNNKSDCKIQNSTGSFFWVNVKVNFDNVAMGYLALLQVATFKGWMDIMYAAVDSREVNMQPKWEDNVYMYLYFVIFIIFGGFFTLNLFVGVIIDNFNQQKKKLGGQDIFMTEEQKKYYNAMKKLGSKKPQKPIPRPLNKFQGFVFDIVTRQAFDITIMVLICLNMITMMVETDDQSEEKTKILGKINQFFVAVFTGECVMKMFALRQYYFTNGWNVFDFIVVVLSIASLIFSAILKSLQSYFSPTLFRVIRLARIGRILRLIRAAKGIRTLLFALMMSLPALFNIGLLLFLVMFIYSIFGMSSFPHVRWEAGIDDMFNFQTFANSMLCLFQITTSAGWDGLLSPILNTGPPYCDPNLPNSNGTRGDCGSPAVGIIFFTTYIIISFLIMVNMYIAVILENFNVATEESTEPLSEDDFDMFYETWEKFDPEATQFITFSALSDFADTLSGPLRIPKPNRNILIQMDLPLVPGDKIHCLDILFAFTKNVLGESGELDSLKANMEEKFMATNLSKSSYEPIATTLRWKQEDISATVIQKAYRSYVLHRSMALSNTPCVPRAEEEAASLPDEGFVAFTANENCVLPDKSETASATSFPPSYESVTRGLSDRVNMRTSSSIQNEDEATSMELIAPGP
T1 sequence (Q15858 whole entry): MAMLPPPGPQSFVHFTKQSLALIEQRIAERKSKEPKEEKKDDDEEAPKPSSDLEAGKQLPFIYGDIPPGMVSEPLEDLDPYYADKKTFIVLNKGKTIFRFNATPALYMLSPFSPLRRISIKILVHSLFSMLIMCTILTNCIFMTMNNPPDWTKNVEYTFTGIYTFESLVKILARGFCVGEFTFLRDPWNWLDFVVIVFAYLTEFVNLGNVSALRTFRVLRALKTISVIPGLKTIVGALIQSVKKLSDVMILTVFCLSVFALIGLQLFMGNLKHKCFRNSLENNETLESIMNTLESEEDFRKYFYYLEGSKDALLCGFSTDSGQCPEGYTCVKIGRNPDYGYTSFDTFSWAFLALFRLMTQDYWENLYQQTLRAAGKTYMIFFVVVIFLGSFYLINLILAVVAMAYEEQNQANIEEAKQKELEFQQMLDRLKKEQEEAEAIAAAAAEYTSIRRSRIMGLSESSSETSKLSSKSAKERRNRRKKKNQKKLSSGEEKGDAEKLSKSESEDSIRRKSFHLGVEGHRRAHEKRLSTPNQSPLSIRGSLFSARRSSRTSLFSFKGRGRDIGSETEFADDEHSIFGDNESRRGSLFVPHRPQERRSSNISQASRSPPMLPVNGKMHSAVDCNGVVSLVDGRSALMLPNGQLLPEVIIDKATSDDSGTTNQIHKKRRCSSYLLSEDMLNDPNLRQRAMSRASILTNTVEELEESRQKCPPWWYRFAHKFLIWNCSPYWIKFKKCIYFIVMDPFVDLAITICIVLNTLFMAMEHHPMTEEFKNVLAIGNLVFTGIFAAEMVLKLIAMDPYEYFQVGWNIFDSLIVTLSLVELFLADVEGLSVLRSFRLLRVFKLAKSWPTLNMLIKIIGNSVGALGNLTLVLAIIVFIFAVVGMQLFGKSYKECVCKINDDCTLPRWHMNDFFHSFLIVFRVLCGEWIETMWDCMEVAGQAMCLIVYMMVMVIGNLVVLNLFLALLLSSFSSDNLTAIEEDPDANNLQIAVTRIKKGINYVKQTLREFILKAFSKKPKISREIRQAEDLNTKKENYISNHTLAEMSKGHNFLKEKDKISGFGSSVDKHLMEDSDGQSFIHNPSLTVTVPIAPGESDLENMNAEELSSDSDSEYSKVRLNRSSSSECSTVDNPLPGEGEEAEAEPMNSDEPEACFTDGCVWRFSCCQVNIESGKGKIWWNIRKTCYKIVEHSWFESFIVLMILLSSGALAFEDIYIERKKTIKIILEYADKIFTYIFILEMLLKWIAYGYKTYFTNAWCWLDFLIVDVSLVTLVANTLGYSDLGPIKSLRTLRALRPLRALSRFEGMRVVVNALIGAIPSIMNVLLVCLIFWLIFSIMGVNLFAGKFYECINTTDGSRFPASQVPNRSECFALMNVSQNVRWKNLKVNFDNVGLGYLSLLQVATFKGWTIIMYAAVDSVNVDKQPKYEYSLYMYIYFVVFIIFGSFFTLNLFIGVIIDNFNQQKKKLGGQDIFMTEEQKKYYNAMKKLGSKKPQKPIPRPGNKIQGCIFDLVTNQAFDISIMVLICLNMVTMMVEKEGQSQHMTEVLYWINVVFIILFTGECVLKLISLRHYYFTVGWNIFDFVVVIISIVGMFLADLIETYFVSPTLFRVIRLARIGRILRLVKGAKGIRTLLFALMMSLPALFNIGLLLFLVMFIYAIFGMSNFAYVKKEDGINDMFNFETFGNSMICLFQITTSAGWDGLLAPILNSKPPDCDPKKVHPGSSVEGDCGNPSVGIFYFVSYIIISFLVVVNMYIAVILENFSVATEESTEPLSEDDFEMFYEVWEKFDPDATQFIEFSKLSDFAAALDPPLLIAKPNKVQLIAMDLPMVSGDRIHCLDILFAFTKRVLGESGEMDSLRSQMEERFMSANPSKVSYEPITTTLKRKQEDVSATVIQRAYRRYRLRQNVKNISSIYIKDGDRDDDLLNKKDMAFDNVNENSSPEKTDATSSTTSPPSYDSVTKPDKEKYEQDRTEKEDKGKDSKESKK

| Structure (SMILES) | IC50 [1] [nM] | IC50 [2] [nM] |
| --- | --- | --- |
| CCOc1ccc(-c2cncc(C(=O)NN[C@@H](C)c3cc(OC)cc(OC)c3)n2)cc1 (single isomer, unassigned) [Compound 24] | > 1000 | > 1000 |
| CCOc1ccc(-c2cncc(C(=O)NN[C@H](C)c3cc(OC)cc(OC)c3)n2)cc1 (single isomer, unassigned) [Compound 25] | > 1000 | 500 to 1000 |
| COc1ccc(-c2cncc(C(=O)NNCc3cc(OC)cc(OC)c3)n2)cc1 [Compound 1, N′-(3,5-dimethoxybenzyl)-6-(4-methoxyphenyl)pyrazine-2-carbohydrazide] | > 1000 | 500 to 1000 |
| COc1ccc(-c2cncc(C(=O)NNCc3ccc(Cl)cc3)n2)cc1 [Compound 2, N′-(4-chlorobenzyl)-6-(4-methoxyphenyl)pyrazine-2-carbohydrazide] | > 1000 | > 1000 |
| COc1cc(CNNC(=O)c2cncc(-c3ccc(OC(C)C)cc3)n2)cc(OC)c1 [Compound 3, N′-(3,5-dimethoxybenzyl)-6-(4-isopropoxyphenyl)pyrazine-2-carbohydrazide] | > 1000 | < 500 |
| O=C(NNCc1ccc(Cl)cc1)c1cncc(-c2ccc(OC3CC3)cc2)n1 [Compound 4, N′-(4-chlorobenzyl)-6-(4-cyclopropoxyphenyl)pyrazine-2-carbohydrazide] | > 1000 | > 1000 |
| O=C(NNCc1ccc(Cl)cc1)c1cncc(-c2ccc(Cl)cc2)n1 [Compound 5, N′-(4-chlorobenzyl)-6-(4-chlorophenyl)pyrazine-2-carbohydrazide] | > 1000 | > 1000 |
| O=C(NN1CCc2cc(Cl)ccc2C1)c1cncc(-c2ccc(Cl)cc2)n1 [Compound 6, N-(6-chloro-3,4-dihydroisoquinoline-2 (1H)-yl)-6-(4-chlorophenyl)pyrazine-2-carboxamide] | > 1000 | > 1000 |
| COc1cc(CNNC(=O)c2cncc(-c3ccc(OC(F)F)cc3)n2)cc(OC)c1 [Compound 7, 6-(4-(difluoromethoxy)phenyl)-N′-(3,5-dimethoxybenzyl)pyrazine-2-carbohydrazide] | > 1000 | 500 to 1000 |
| COc1cc(CNNC(=O)c2cncc(-c3ccc(OC(F)F)nc3)n2)cc(OC)c1 [Compound 8, 6-(6-(difluoromethoxy)pyridin-3-yl)-N′-(3,5-dimethoxybenzyl)pyrazine-2-carbohydrazide] | > 1000 | < 500 |
| CCOc1ccc(-c2cncc(C(=O)NNCc3ccc(Cl)cc3)n2)cc1 [Compound 9, N′-(4-chlorobenzyl)-6-(4-ethoxyphenyl)pyrazine-2-carbohydrazide] | > 1000 | > 1000 |
| CCOc1ccc(-c2cncc(C(=O)NNCc3cc(OC)cc(OC)c3)n2)cc1 [Compound 10, N′-(3,5-dimethoxybenzyl)-6-(4-ethoxyphenyl)pyrazine-2-carbohydrazide] | 500 to 1000 | < 500 |
| CCOc1ccc(-c2cncc(C(=O)NN3CCCc4ccc(OC)cc4C3)n2)cc1 [Compound 11, 6-(4-ethoxyphenyl)-N-(8-methoxy-1,3,4,5-tetrahydro-2H-benzo[c]azepin-2-yl)pyrazine-2-carboxamide] | > 1000 | > 1000 |
| CCOc1ccc(-c2cncc(C(=O)NN3CCOc4ccc(OC)cc4C3)n2)cc1 [Compound 12, 6-(4-ethoxyphenyl)-N-(7-methoxy-2,3-dihydrobenzo[f][1,4]oxazepine-4(5H)-yl)pyrazine-2-carboxamide] | > 1000 | > 1000 |
| CCOc1ccc(-c2cncc(C(=O)NN3Cc4ccc(OC)cc4C3)n2)cc1 [Compound 13, 6-(4-ethoxyphenyl)-N-(5-methoxyisoindolin-2-yl)pyrazine-2-carboxamide] | > 1000 | < 500 |
| CCOc1ccc(-c2cncc(C(=O)NNCc3cc(OC)ccc3C)n2)cc1 [Compound 14, 6-(4-ethoxyphenyl)-N′-(5-methoxy-2-methylbenzyl)pyrazine-2-carbohydrazide] | > 1000 | < 500 |

| Structure (SMILES) | IC50 [1] [nM] | IC50 [2] [nM] |
| --- | --- | --- |
| CCOc1ccc(-c2cncc(C(=O)NNCc3cc(OC)ccc3F)n2)cc1 [Compound 15, 6-(4-ethoxyphenyl)-N′-(2-fluoro-5-methoxybenzyl)pyrazine-2-carbohydrazide] | > 1000 | < 500 |
| CCOc1ccc(-c2cncc(C(=O)NNCc3cccc(OC)c3)n2)cc1 [Compound 16, 6-(4-ethoxyphenyl)-N′-(3-methoxybenzyl)pyrazine-2-carbohydrazide] | > 1000 | < 500 |
| CCOc1ccc(-c2cncc(C(=O)NN(C)Cc3cc(OC)cc(OC)c3)n2)cc1 [Compound 17, N′-(3,5-dimethoxybenzyl)-6-(4-ethoxyphenyl)-N′-methylpyrazine-2-carbohydrazide] | > 1000 | > 1000 |
| CCOc1ccc(-c2cncc(C(=O)NNCc3cc(OC)cnc3C)n2)cc1 [Compound 18, 6-(4-ethoxyphenyl)-N′-((5-methoxy-2-methylpyridin-3-yl)methyl)pyrazine-2-carbohydrazide] | > 1000 | < 500 |
| CCOc1ccc(-c2cncc(C(=O)NNCc3ccccc3F)n2)cc1 [Compound 22, 6-(4-ethoxyphenyl)-N′-(2-fluorobenzyl)pyrazine-2-carbohydrazide] | > 1000 | < 500 |
| CCOc1ccc(-c2cncc(C(=O)NNCc3cc(OC)cnc3F)n2)cc1 [Compound 26, 6-(4-ethoxyphenyl)-N′-((2-fluoro-5-methoxypyridin-3-yl)methyl)pyrazine-2-carbohydrazide] | > 1000 | 500 to 1000 |
| CCOc1ccc(-c2cncc(C(=O)NNCc3cc(OC)cc(OC)c3)n2)c(F)c1 [Compound 27, N′-(3,5-dimethoxybenzyl)-6-(4-ethoxy-2-fluorophenyl)pyrazine-2-carbohydrazide] | > 1000 | < 500 |
| CCOc1ccc(-c2cncc(C(=O)NNCc3cc(OC)cc(OC)c3)n2)c(C)c1 [Compound 28, N′-(3,5-dimethoxybenzyl)-6-(4-ethoxy-2-methylphenyl)pyrazine-2-carbohydrazide] | > 1000 | < 500 |
| CCOc1ccc(-c2cncc(C(=O)NNCc3cc(OC)cc(OC)c3)n2)cn1 [Compound 29, N′-(3,5-dimethoxybenzyl)-6-(6-ethoxypyridin-3-yl)pyrazine-2-carbohydrazide] | > 1000 | 500 to 1000 |
| CCOc1ccc(-c2cncc(C(=O)NNCc3cccc(OC)c3)n2)cn1 [Compound 30, 6-(6-ethoxypyridin-3-yl)-N′-(3-methoxybenzyl)pyrazine-2-carbohydrazide] | > 1000 | < 500 |
| CCOc1ccc(-c2cncc(C(=O)NNCc3cc(OC)cnc3F)n2)cn1 [Compound 31, 6-(6-ethoxypyridin-3-yl)-N′-((2-fluoro-5-methoxypyridin-3-yl)methyl)pyrazine-2-carbohydrazide] | > 1000 | > 1000 |
| CCOc1ccc(-c2cncc(C(=O)NNCc3cc(OC)ccc3F)n2)cn1 [Compound 32, 6-(6-ethoxypyridin-3-yl)-N′-(2-fluoro-5-methoxybenzyl)pyrazine-2-carbohydrazide] | > 1000 | < 500 |
| CCOc1ccc(-c2cncc(C(=O)NNCc3cc(OC)ccc3C)n2)cn1 [Compound 33, 6-(6-ethoxypyridin-3-yl)-N′-(5-methoxy-2-methylbenzyl)pyrazine-2-carbohydrazide] | > 1000 | < 500 |
| CCOc1ccc(-c2cncc(C(=O)NNCc3cc(OC)cnc3C)n2)cn1 [Compound 34, 6-(6-ethoxypyridin-3-yl)-N′-((5-methoxy-2-methylpyridin-3-yl)methyl)pyrazine-2-carbohydrazide] | > 1000 | < 500 |
| CCOc1ccc(-c2cncc(C(=O)NNCc3ccccc3F)n2)cn1 [Compound 39, 6-(6-ethoxypyridin-3-yl)-N′-(2-fluorobenzyl)pyrazine-2-carbohydrazide] | > 1000 | < 500 |
